Results reported in patent US20220380319A1 (Bial - R&D Investments, S.A., priority 2019, published 2022).
Values after ≈ are worked out from the molar mass of the structure shown.

How the values were obtained:
[1] = Compound solubility in water
acid ceramidase = biological target: T1, acid ceramidase (Homo sapiens, UniProt Q13510); assay: Acid ceramidase inhibition, biochemical fluorescent assay with cell lysates overexpressing acid ceramidase, substrate Rbm14-12; details: substrate Rbm14-12 6.3 μM
T1 construct: Cell lysates overexpressing acid ceramidase were used as the enzyme source; expressed in transfected cells
T1 sequence (Q13510 22-395): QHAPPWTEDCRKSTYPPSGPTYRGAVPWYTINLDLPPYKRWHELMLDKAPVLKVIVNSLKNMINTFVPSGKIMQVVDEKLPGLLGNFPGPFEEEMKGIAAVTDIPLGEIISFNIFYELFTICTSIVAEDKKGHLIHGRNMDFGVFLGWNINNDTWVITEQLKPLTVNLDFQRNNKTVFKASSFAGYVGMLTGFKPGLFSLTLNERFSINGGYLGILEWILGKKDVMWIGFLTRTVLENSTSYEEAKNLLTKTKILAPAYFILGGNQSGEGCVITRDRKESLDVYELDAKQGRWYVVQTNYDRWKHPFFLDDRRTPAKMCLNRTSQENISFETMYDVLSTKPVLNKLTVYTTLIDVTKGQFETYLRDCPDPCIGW
Method in brief: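 Lysate of cells overexpressing acid ceramidase (10 μg protein) preincubated with compound dose series 1 hr at RT in 25 mM NaAC, 100 mM NaCl, pH 4.5, then reacted 1 hr with 6.3 μM Rbm14-12. Stopped with NaIO4/glycine buffer pH 10.6, fluorescence ex360/em446; IC50 by four-parameter fit.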

[2] = pH 4.5, 1 hr preincubation at RT

## CC(C)CCNC(=O)n1cnc2c(N3CCN(C4CCOCC4)CC3)cccc21 [Example 155, N-iso-Pentyl-4-(4-(tetrahydro-2H-pyran-4-yl)-piperazin-1-yl)-1H-benzo[d]imidazole-1-carboxamide]
[1]
  solubility: 30 µg/mL (≈ 75.1 µM)
Acid ceramidase; [2]
  IC50: 200 to 1000 nM

## CC(C)CCNC(=O)n1cnc2c(N3CCN(c4cccc5cncn45)CC3)cccc21 [Example 156, 4-(4-(Imidazo[1,5-a]pyridin-5-yl)piperazin-1-yl)-N-iso-pentyl-1H-benzo[d]imidazole-1-carboxamide]
[1]
  solubility: 0.2 µg/mL (≈ 0.463 µM)
Acid ceramidase; [2]
  IC50: 200 to 1000 nM

## CC(C)CCNC(=O)n1cnc2c(N3CCN(C)C4(CC4)C3)cccc21 [Example 157, N-iso-Pentyl-4-(4-methyl-4,7-diazaspiro[2.5]-octan-7-yl)-1H-benzo[d]imidazole-1-carboxamide]
[1]
  solubility: 27 µg/mL (≈ 76 µM)
Acid ceramidase; [2]
  IC50: 200 to 1000 nM

## CC(C)CCNC(=O)n1cnc2c(N3CCN4CCCC4C3)cccc21 (centres unmarked) [Example 158, 4-(Hexahydropyrrolo[1,2-a]pyrazin-2(1H)-yl)-N-iso-pentyl-1H-benzo[d]imidazole-1-carboxamide]
[1]
  solubility: 17 µg/mL (≈ 47.8 µM)
Acid ceramidase; [2]
  IC50: 200 to 1000 nM

## CC(C)CCNC(=O)n1cnc2c(N3CC4CC3CN4C)cccc21 (centres unmarked) [Example 159, N-iso-Pentyl-4-(5-methyl-2,5-diazabicyclo[2.2.1]heptan-2-yl)-1H-benzo[d]imidazole-1-carboxamide]
[1]
  solubility: 33 µg/mL (≈ 96.6 µM)
Acid ceramidase; [2]
  IC50: 200 to 1000 nM

## CC(C)CCNC(=O)n1cnc2c(N3CC4CC(C3)N4C)cccc21 [Example 160, N-iso-Pentyl-4-(6-methyl-3,6-diazabicyclo[3.1.1]-heptan-3-yl)-1H-benzo[d]imidazole-1-carboxamide]
[1]
  solubility: 35 µg/mL (≈ 103 µM)
Acid ceramidase; [2]
  IC50: 200 to 1000 nM

## CC(C)CCNC(=O)n1cnc2c(N3CC4CCC(C3)N4C)cccc21 [Example 161, N-iso-Pentyl-4-(8-methyl-3,8-diazabicyclo[3.2.1]-octan-3-yl)-1H-benzo[d]imidazole-1-carboxamide]
[1]
  solubility: 35 µg/mL (≈ 98.5 µM)
Acid ceramidase; pH 4.5
  IC50: 200 to 1000 nM

## CC(C)CCNC(=O)n1cnc2c(N3CCN(C)CC3=O)cccc21 [Example 162, N-iso-Pentyl-4-(4-methyl-2-oxopiperazin-1-yl)-1H-benzo[d]imidazole-1-carboxamide]
[1]
  solubility: 18 µg/mL (≈ 52.4 µM)
Acid ceramidase; pH 4.5
  IC50: > 1000 nM

## CC(C)CCNC(=O)n1cnc2c(N3CCN(C)C(=O)C3)cccc21 [Example 163, N-iso-Pentyl-4-(4-methyl-3-oxopiperazin-1-yl)-1H-benzo[d]imidazole-1-carboxamide]
[1]
  solubility: 14 µg/mL (≈ 40.8 µM)
Acid ceramidase; pH 4.5
  IC50: 200 to 1000 nM

## CC(C)CCNC(=O)n1cnc2c(N3CC(C)(C#N)C3)cccc21 [Example 165, 4-(3-Cyano-3-methylazetidin-1-yl)-N-isopentyl-1H-benzo[d]imidazole-1-carboxamide]
[1]
  solubility: 1 µg/mL (≈ 3.07 µM)
Acid ceramidase; pH 4.5
  IC50: 200 to 1000 nM

## CC(C)CCNC(=O)n1cnc2c(N3C[C@H]4C[C@@H]3CO4)cccc21 [Example 166, 4-((1R,4R)-2-Oxa-5-azabicyclo[2.2.1]heptan-5-yl)-N-iso-pentyl-1H-benzo[d]imidazole-1-carboxamide]
[1]
  solubility: 12 µg/mL (≈ 36.5 µM)
Acid ceramidase; pH 4.5
  IC50: 200 to 1000 nM

## CC(C)CCNC(=O)n1cnc2c(N3C[C@@H](C)O[C@@H](C)C3)cccc21 [Example 167, 4-((2S,6R)-2,6-Dimethylmorpholino)-N-iso-pentyl-1H-benzo[d]imidazole-1-carboxamide]
[1]
  solubility: 4 µg/mL (≈ 11.6 µM)
Acid ceramidase; pH 4.5
  IC50: 200 to 1000 nM

## CC(C)CCNC(=O)n1cnc2c(N3CCOC[C@@H]3C)cccc21 [Example 169, (S)—N-iso-Pentyl-4-(3-methylmorpholino)-1H-benzo[d]imidazole-1-carboxamide]
[1]
  solubility: 23 µg/mL (≈ 69.6 µM)
Acid ceramidase; pH 4.5
  IC50: 200 to 1000 nM

## CC(C)CCNC(=O)n1cnc2c(N3CCOC(C)(C)C3)cccc21 [Example 170, 4-(2,2-Dimethylmorpholino)-N-isopentyl-1H-benzo[d]imidazole-1-carboxamide]
[1]
  solubility: 14 µg/mL (≈ 40.6 µM)
Acid ceramidase; pH 4.5
  IC50: 200 to 1000 nM

## CC(C)CCNC(=O)n1cnc2c(N3CCO[C@@H](C)C3)cccc21 [Example 171, (S)—N-iso-Pentyl-4-(2-methylmorpholino)-1H-benzo[d]imidazole-1-carboxamide]
[1]
  solubility: 15 µg/mL (≈ 45.4 µM)
Acid ceramidase; pH 4.5
  IC50: 200 to 1000 nM

## CC(C)CCNC(=O)n1cnc2c(N3CCO[C@@H](C(C)C)C3)cccc21 [Example 172a, (S)—N-iso-Pentyl-4-(2-iso-propylmorpholino)-1H-benzo[d]imidazole-1-carboxamide]
[1]
  solubility: 4 µg/mL (≈ 11.2 µM)
Acid ceramidase; pH 4.5
  IC50: 200 to 1000 nM

## CC(C)CCNC(=O)n1cnc2c(N3CCO[C@H](C(C)C)C3)cccc21 [Example 172b, (R)—N-iso-pentyl-4-(2-iso-propylmorpholino)-1H-benzo[d]imidazole-1-carboxamide]
[1]
  solubility: 4 µg/mL (≈ 11.2 µM)
Acid ceramidase; pH 4.5
  IC50: 200 to 1000 nM

## CC(C)CCNC(=O)n1cnc2c(N3CCCOCC3)cccc21 [Example 173, N-iso-Pentyl-4-(1,4-oxazepan-4-yl)-1H-benzo[d]imidazole-1-carboxamide]
[1]
  solubility: 17 µg/mL (≈ 51.4 µM)
Acid ceramidase; pH 4.5
  IC50: 200 to 1000 nM

## CC(C)CCNC(=O)n1cnc2c(N3CCO[C@@H](Cc4ccccc4)C3)cccc21 [Example 174, (S)-4-(2-Benzylmorpholino)-N-iso-pentyl-1H-benzo[d]imidazole-1-carboxamide]
[1]
  solubility: 1 µg/mL (≈ 2.46 µM)
Acid ceramidase; pH 4.5
  IC50: 200 to 1000 nM

## CC(C)CCNC(=O)n1cnc2c(N3CCC4(CC3)COC4)cccc21 [Example 175, N-iso-Pentyl-4-(2-oxa-7-azaspiro[3.5]nonan-7-yl)-1H-benzo[d]imidazole-1-carboxamide]
[1]
  solubility: 18 µg/mL (≈ 50.5 µM)
Acid ceramidase; pH 4.5
  IC50: 200 to 1000 nM

## CC(C)CCNC(=O)n1cnc2c(N3CC4(COC4)C3)cccc21 [Example 176]
[1]
  solubility: 22 µg/mL (≈ 67 µM)
Acid ceramidase; pH 4.5
  IC50: 200 to 1000 nM

## COC1(C)CN(c2cccc3c2ncn3C(=O)NCCC(C)C)C1 [Example 177, N-iso-Pentyl-4-(3-methoxy-3-methylazetidin-1-yl)-1H-benzo[d]imidazole-1-carboxamide]
[1]
  solubility: 13 µg/mL (≈ 39.3 µM)
Acid ceramidase; pH 4.5
  IC50: 200 to 1000 nM

## N#Cc1cc(N2CCOCC2)c2ncn(C(=O)NCCCC3CC3)c2c1 [Example 178, 6-Cyano-N-(3-cyclopropylpropyl)-4-morpholino-1H-benzo[d]imidazole-1-carboxamide]
[1]
  solubility: 2 µg/mL (≈ 5.66 µM)
Acid ceramidase; pH 4.5
  IC50: < 200 nM

## CC(C)CCNC(=O)n1cnc2c(N3CCOCC3)cc(C#N)cc21 [Example 179, 6-Cyano-N-iso-pentyl-4-morpholino-1H-benzo[d]imidazole-1-carboxamide]
[1]
  solubility: 10 µg/mL (≈ 29.3 µM)
Acid ceramidase; pH 4.5
  IC50: < 200 nM

## CC(C)CCNC(=O)n1cnc2c(N3CCN(C)CC3)cc(C#N)cc21 [Example 180, 6-Cyano-N-iso-pentyl-4-(4-methylpiperazin-1-yl)-1H-benzo[d]imidazole-1-carboxamide]
[1]
  solubility: 23 µg/mL (≈ 64.9 µM)
Acid ceramidase; pH 4.5
  IC50: < 200 nM

## CC(C)CCNC(=O)n1cnc2c(C3CCN(C)CC3)cccc21 [Example 182, N-iso-Pentyl-4-(1-methylpiperidin-4-yl)-1H-benzo[d]imidazole-1-carboxamide]
[1]
  solubility: 32 µg/mL (≈ 97.4 µM)
Acid ceramidase; pH 4.5
  IC50: 200 to 1000 nM

## COc1nc2ccc(N3CCOCC3)cc2n1C(=O)NCCCC1(C(F)(F)F)CC1 [Example 183a, 2-Methoxy-6-morpholino-N-(3-(1-(trifluoromethyl)cyclopropyl)propyl)-1H benzo[d]imidazole-1-carboxamide]
[1]
  solubility: 15 µg/mL (≈ 35.2 µM)
Acid ceramidase; pH 4.5
  IC50: < 200 nM

## COc1nc2cc(N3CCOCC3)ccc2n1C(=O)NCCCC1(C(F)(F)F)CC1 [Example 183b, 2-methoxy-5-morpholino-N-(3-(1-(trifluoromethyl)cyclopropyl)propyl)-1H-benzo[d]imidazole-1-carboxamide]
[1]
  solubility: 3 µg/mL (≈ 7.04 µM)
Acid ceramidase; pH 4.5
  IC50: < 200 nM

## CC(C)(C)CCNC(=O)n1cnc2c(N3CCN(C4CC4)CC3)cccc21 [Example 185, 4-(4-Cyclopropylpiperazin-1-yl)-N-(3,3-dimethylbutyl)-1H-benzo[d]imidazole-1-carboxamide]
[1]
  solubility: 2 µg/mL (≈ 5.41 µM)
Acid ceramidase; pH 4.5
  IC50: 200 to 1000 nM

## CC(C)(C)CCCNC(=O)n1cnc2c(N3CCOCC3)cccc21 [Example 186, N-(4,4-Dimethylpentyl)-4-morpholino-1H-benzo[d]imidazole-1-carboxamide]
[1]
  solubility: 10 µg/mL (≈ 29 µM)
Acid ceramidase; pH 4.5
  IC50: < 200 nM

## COc1nc2ccccc2n1C(=O)NCCCCn1ccc(C(C)(C)C)n1 [Example 187, N-(4-(3-(tert-Butyl)-1H-pyrazol-1-yl)butyl)-2-methoxy-1H-benzo[d]imidazole-1-carboxamide]
[1]
  solubility: 22 µg/mL (≈ 59.5 µM)
Acid ceramidase; pH 4.5
  IC50: 200 to 1000 nM

## COc1nc2cc(N3CCOCC3)ccc2n1C(=O)NCCCCn1ccc(C(C)(C)C)n1 [Example 188a, N-(4-(3-(tert-Butyl)-1H-pyrazol-1-yl)butyl)-2-methoxy-5-morpholino-1H-benzo[d]imidazole-1-carboxamide]
[1]
  solubility: 27 µg/mL (≈ 59.4 µM)
Acid ceramidase; pH 4.5
  IC50: 200 to 1000 nM

## COc1nc2ccc(N3CCOCC3)cc2n1C(=O)NCCCCn1ccc(C(C)(C)C)n1 [Example 188b, N-(4-(3-(tert-butyl)-1H-pyrazol-1-yl)butyl)-2-methoxy-6-morpholino-1H-benzo[d]imidazole-1-carboxamide]
[1]
  solubility: 26 µg/mL (≈ 57.2 µM)
Acid ceramidase; pH 4.5
  IC50: 200 to 1000 nM

## CCOc1nc2cc(N3CCOCC3)ccc2n1C(=O)NCCCc1ccccc1 [Example 189a, 2-Ethoxy-5-morpholino-N-(3-phenylpropyl)-1H-benzo[d]imidazole-1-carboxamide]
[1]
  solubility: 2 µg/mL (≈ 4.9 µM)
Acid ceramidase; pH 4.5
  IC50: < 200 nM
